Measurements from US6617131B2, “Nucleic acid molecule encoding the potassium channel protein, KCNQ5” (Aventis Pharma Deutschland GmbH, priority 2000, dated 2003).

Experiments:
KCNQ2 = KCNQ2 (Homo sapiens, UniProt O43526); details: cited from earlier work
KCNQ3 = KCNQ3 (Rattus norvegicus, UniProt O88944); details: as reported; cited from earlier work
hKCNQ5 = biological target: T1, hKCNQ5 (Homo sapiens, UniProt Q9NR82); experiment: two-electrode voltage-clamp of KCNQ5 currents in Xenopus oocytes; type: cell-based
T1 construct: A composite full-length cDNA construct was assembled from two overlapping cDNA clones and subcloned into the Xenopus expression vector pSGEM; expressed in transfected cells; host or cells: Xenopus laevis oocytes injected with in vitro transcribed capped cRNA (vector pSGEM)
T1 sequence (Q9NR82 whole entry): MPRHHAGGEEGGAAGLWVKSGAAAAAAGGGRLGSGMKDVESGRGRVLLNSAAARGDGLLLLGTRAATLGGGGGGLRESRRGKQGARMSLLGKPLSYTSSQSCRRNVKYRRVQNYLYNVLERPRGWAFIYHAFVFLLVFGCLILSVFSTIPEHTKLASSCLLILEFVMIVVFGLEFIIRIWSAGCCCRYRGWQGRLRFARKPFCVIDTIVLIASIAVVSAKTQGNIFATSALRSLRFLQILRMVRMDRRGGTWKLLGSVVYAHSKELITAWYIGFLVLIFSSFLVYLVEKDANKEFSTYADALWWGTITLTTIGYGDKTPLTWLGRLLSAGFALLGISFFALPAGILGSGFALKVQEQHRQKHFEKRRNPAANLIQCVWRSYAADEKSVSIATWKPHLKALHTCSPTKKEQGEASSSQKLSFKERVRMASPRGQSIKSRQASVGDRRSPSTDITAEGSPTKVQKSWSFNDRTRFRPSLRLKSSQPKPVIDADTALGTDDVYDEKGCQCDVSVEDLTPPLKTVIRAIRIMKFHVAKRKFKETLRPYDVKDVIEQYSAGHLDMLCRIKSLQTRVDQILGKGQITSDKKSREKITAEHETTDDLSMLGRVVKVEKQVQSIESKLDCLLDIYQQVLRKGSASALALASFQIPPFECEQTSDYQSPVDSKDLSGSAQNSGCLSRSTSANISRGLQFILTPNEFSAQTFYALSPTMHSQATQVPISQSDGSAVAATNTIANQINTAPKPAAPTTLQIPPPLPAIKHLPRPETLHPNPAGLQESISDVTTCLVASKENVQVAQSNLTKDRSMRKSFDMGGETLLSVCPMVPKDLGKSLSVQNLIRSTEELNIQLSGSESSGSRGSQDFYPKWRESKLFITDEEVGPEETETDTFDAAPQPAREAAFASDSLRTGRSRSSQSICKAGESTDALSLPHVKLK
Source text: A, representative current traces from a KCNQ5 injected oocyte subjected to a pulse protocol that stepped the membrane potential from holding potential (−100 mV) to test pulses from −100 to +50 mV and back to holding potential. B, I-V relationships for KCNQ5 expressing oocytes (n=12) recorded using the protocol in A. C, tail current reversal potential of KCNQ 5 currents as a function of extracellular K^+ concentration. The dashed line is drawn according to the Nernst equation for a perfectly selective K^+ channel (n=5). D, effects of TEA, clofilium, quinidine, and chromanol 293 B on KCNQ 5 current. Superimposed currents were obtained during a 3 s depolarizing step from −100 mV to 0 mV, during the same experiment. […]
Xenopus laevis oocytes were obtained from tricaine anaesthetized animals. […] Macroscopic currents were recorded 2-4 days after injection. […]
The possible function of KCNQ5 as a potassium channel was addressed by electrophysiological analysis of Xenopus oocytes injected with KCNQ5 cRNA transcribed in vitro. Two to four days after injection novel currents were detected that were not observed in water-injected control oocytes. […] The two components of deactivation were determined at a repolarizing voltage of −100 mV following a 3s depolarizing step to +40 mV. […]

KCNQ2, sequence (O43526 whole entry): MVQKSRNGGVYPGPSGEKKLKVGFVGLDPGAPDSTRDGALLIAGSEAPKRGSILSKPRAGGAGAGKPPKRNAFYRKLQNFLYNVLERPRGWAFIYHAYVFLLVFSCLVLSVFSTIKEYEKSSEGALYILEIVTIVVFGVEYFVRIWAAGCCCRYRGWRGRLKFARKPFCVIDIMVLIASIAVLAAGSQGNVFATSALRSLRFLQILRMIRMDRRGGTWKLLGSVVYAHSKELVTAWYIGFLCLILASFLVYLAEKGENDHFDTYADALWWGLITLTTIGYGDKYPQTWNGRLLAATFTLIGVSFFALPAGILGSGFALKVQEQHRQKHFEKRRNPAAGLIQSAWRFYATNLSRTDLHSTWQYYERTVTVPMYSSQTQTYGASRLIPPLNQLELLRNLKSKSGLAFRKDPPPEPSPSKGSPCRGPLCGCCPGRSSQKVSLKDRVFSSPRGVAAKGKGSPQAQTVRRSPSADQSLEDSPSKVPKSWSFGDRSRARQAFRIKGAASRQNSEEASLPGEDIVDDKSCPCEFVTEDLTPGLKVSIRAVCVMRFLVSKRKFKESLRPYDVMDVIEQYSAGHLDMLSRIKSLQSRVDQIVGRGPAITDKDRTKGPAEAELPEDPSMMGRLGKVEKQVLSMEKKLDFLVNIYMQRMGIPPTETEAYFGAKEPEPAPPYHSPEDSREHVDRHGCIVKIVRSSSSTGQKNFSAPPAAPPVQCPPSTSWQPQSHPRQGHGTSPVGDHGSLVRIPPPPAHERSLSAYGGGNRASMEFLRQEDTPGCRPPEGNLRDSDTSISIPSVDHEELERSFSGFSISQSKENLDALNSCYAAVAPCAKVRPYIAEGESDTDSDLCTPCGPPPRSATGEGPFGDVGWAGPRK
KCNQ3, sequence (O88944 whole entry): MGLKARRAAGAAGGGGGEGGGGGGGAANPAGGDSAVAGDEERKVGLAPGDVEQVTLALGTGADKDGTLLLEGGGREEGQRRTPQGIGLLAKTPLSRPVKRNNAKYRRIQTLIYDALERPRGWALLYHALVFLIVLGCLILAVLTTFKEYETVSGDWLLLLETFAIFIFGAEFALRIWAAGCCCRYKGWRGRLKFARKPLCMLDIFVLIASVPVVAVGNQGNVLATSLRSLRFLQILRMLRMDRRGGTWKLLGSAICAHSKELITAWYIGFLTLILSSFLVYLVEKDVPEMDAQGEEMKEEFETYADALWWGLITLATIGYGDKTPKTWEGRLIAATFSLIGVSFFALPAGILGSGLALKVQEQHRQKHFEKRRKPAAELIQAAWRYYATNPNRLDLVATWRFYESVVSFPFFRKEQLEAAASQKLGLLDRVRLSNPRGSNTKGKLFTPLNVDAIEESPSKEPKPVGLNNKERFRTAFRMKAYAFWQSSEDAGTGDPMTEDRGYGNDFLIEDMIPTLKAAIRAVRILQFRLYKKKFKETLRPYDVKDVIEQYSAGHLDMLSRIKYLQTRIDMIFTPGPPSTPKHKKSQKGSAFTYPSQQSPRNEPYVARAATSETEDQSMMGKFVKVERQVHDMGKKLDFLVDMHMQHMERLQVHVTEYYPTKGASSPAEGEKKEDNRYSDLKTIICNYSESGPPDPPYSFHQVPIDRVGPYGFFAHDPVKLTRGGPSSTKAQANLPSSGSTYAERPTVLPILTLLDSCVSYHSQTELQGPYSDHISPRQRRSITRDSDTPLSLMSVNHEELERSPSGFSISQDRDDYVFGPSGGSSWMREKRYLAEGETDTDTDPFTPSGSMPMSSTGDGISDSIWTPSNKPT

Which “inhibition of KCNQ2” value (KCNQ2; 10 μM) does the source give for `CCCCCCC[N+](CC)(CC)CCCCc1ccc(Cl)cc1` [Clofilium] here?
The value was “little inhibition”.

Which results are given for `CC[N+](CC)(CC)CC` [TEA, tetraethylammonium]?
sensitivity of KCNQ3 to the blocker (KCNQ3): insensitive; sensitivity of KCNQ2 to the blocker (KCNQ2): high sensitivity; sensitivity of KCNQ5 currents to the blocker (hKCNQ5): insensitive

For `C=C[C@H]1C[N@@]2CC[C@H]1C[C@@H]2[C@@H](O)c1ccnc2ccc(OC)cc12` [quinidine], which “block of KCNQ5 currents” value (hKCNQ5; 300 μM, 3 s step from −100 mV to 0 mV) is on record?
The value was 50%.
